Assay results published in US10434094B2, “Combination of checkpoint kinase 1 inhibitors and wee 1 kinase inhibitors” (Array BioPharma Inc., priority 2010, dated 2019).
Like-named read-outs stand apart in the source and are kept apart here.

What was measured:
HEL92.1.7 cells = assay: cellular viability by CellTiter Blue assay, single agents and matrix combination; format: cell-based; conditions: Homo sapiens, HEL 92.1.7, 72 h, single agent, three days of treatment
Procedure: HEL92.1.7 cells were plated in 96-well plates and then treated with Compound 2 or MK-1775 as single agents. After three days of treatment, cellular viability was assessed by CellTiter Blue assay (Promega). Data represent the mean±S.E. (n=5 for Compound 2, n=2 for MK-1775). […] HEL92.1.7 cells were plated in 96-well plates and then treated with combinations of Compound 2 and MK-1775 in matrix fashion at the indicated concentrations. Three days after treatment cellular viability was assessed by CellTiter Blue assay. […] Data represent the average of two independent experiments (triplicate plates were averaged for each individual experiment).

[1] = cited from earlier work

| SMILES | IC50 (HEL92.1.7 cells) [nM] | MTD ([1]; multiple dose (5 BID doses) in combination with carboplatin (AUC 5), trial ongoing) [mg] | MTD ([1]; multiple dose (5 BID doses) in combination with cisplatin (75 mg/m^2), trial ongoing) [mg] | MTD ([1]; multiple dose in combination with gemcitabine (1000 mg/m^2), BID day 1) [mg] | MTD ([1]; multiple dose in combination with gemcitabine (1000 mg/m^2), BID day 2) [mg] | MTD ([1]; multiple dose in combination with gemcitabine (1000 mg/m^2), QD day 3) [mg] | MTD ([1]; single dose in combination with carboplatin (AUC 5), patients with advanced solid tumors) [mg] | MTD ([1]; single dose in combination with cisplatin (75 mg/m^2), patients with advanced solid tumors) [mg] | MTD ([1]; single dose in combination with gemcitabine (1000 mg/m^2), patients with advanced solid tumors) [mg] |
| --- | --- | --- | --- | --- | --- | --- | --- | --- | --- |
| C=CCn1c(=O)c2cnc(Nc3ccc(N4CCN(C)CC4)cc3)nc2n1-c1cccc(C(C)(C)O)n1 [MK-1775] | 103 | 225 | 125 | 50 | 25 | 25 | 325 | 200 | 200 |
| CC(C)C(=O)Nc1c[nH]c2ncc(Br)c(N3CCC[C@@H](N)C3)c12 [Compound 2, (R)—N-(4-(3-aminopiperidin-1-yl)-5-bromo-1H-pyrrolo [2,3-b]pyridin-3-yl)isobutyramide] | 30 | – | – | – | – | – | – | – | – |
